The source of these data is PMC11014671, “Small molecules that disrupt RAD54-BLM interaction hamper tumor proliferation in colon cancer chemoresistance models” (The Journal of Clinical Investigation, 2024).

One assay deals with T1, RAD54 (Homo sapiens, UniProt Q92698).
T1 construct: gene RAD54L; His-RAD54
T1 sequence (Q92698 1-747): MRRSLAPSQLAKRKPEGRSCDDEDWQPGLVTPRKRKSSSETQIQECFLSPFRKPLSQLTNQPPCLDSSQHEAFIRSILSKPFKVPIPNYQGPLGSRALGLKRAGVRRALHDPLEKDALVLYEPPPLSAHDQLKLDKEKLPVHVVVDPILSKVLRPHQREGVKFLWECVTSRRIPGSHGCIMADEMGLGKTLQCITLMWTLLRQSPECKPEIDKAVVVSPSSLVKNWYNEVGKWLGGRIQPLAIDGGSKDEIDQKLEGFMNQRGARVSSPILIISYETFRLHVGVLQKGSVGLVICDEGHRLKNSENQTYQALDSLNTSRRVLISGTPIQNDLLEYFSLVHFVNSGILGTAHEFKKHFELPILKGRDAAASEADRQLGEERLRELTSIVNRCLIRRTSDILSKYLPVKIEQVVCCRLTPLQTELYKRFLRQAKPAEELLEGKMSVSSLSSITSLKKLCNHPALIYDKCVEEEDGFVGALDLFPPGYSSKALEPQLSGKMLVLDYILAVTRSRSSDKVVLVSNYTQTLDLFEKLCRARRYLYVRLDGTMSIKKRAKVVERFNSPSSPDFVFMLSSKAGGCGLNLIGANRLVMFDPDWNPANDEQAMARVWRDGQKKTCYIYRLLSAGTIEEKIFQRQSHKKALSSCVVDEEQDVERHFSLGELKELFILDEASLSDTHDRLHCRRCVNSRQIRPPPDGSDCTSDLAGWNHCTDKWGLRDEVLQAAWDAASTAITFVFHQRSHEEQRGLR
The assay can be described thus: biolayer interferometry (His-RAD54 immobilized); tryptophan fluorescence quenching. The format is binding. Background: BLI is a label-free optical method that tracks binding on a fibre tip over time.

The target of assay [1] is His-RAD54 WT (full-length recombinant RAD54) (UniProt Q92698). The assay can be described thus: BLI; Octet; His-RAD54 WT immobilized onto Ni-NTA sensor, different concentrations of biotin BLM_peptide.

A word on the Kd: it is the equilibrium constant for the complex coming apart. Consider `CC(=O)Nc1nnc(S(N)(=O)=O)s1` [C3, acetazolamide], for which, at RAD54, the Kd came out at 55.8 µM.
Consider biotinylated BLM (aa 181–212) peptide, for which the Kd in assay [1] is 0.0108 µM.
